These results are taken from paper PMC9685055, “Biological activity of new bioactive steroids deriving from biotransformation of cortisone” (Microbial Cell Factories, 2022).

Series [1] is described as follows: Photochemiluminescence (PCL-ACL) antioxidant assay. The conditions noted are these: 0.1 mg/mL; Trolox equivalents per g of sample. The protocol: Photochemiluminescence assay, based on the methodology of Popov and Lewin [35], was performed to measure the antioxidant activity of cortisone, SCA and SCB compounds against superoxide anion radicals generated from luminol, a photosensitizer, when exposed to UV light at λmax = 351 nm. The antioxidant activity of compounds was measured using ACL kits (Analytic Jena, Jena, Germany) with a Photochem apparatus (Analytic Jena, Jena, Germany). In the PCL-ACL assay, the photochemical generation of free radicals is combined with the sensitive detection using chemiluminescence. In ACL studies, the kinetic light emission curve was monitored for 3 min and expressed as mM Trolox equivalents. The areas under the curves were calculated using the PCL soft control and analysis software. […] The observed inhibition of the signal was plotted against the concentration of Trolox added to the assay medium. The concentration of the added sample was such that the generated luminescence during the 3 min sampling interval fell within the limits of the standard curve. For ACL assay, 2.3 mL of reagent 1 (solvent and dilution reagent, methanol), 0.2 mL of reagent 2 (buffer solution), 25 μL of reagent 3 (photosensitizer: luminol 1 mmol L^−1), and 10 μL of standard or sample solution were mixed and measured. Luminol is used as a photosensitizer and as a detecting substance for free radicals. Trolox were used for the standard calibration curve from […].

The test system of series [2] is IL-8 gene expression in TNFα-stimulated HaCaT cells. The series is described as follows: TNFα-induced IL-8 gene expression, real-time PCR. The series is classed as cell-based. As to conditions: 10 μM pretreatment 24 h, then 10 ng/mL TNFα 1 h. The protocol:
HaCaT cells were cultured with Dulbecco’s modified Eagle’s medium High Glucose (Lonza, Milan, Italy) supplemented with 10% FBS, 100 U/mL penicillin, 100 μg/mL streptomycin and 2 mM L-glutamine as previously described. Cells were maintained in a humidified incubator at 37 °C with 5% CO2 and incubated until the monolayer was 80% confluent. Medium was changed every 2 days.
HaCaT cells were pretreated with or without 10 μM of both SCA and SCB for 24 h. Stock solutions of the two compounds were prepared in DMSO immediately before use and diluted to the final concentration in the culture medium. In some sets of experiments, betamethasone-17-valerate (10 µg/mL) served as a positive control; dimethyl sulfoxide (DMSO) served as a solvent control. After the pretreatments, cells were stimulated with 10 ng/mL TNFα for 1 h to induce the NFκB signaling pathway. Then, media were replaced with fresh culture medium. Cells and supernatants were collected at different time points for each set of experiments as described below.
Quantitative real-time PCR was carried out as described in detail previously. Briefly, HaCaT cells were treated as indicated above and harvested for RNA extraction 3 h after the end of the proinflammatory stimulus with TNFα. […] Quantitative real-time PCR (qPCR) was performed using SYBR green on the CFX Multicolor real-time PCR detection system (Bio-Rad, Italy). […]
A general note: Real-time PCR tracks product formation cycle by cycle.

The test system of series [3] is Salmonella typhimurium TA100. Description: Ames test (plate incorporation), strain TA100. The class given is cell-based. The protocol: Mutagenicity assay was performed following the plate incorporation method with the histidine-requiring Salmonella typhimurium mutant TA98 and TA100 strains. All strains (100 µl per plate of fresh overnight cultures) were checked with and without the addition of 0.5 mL of a 5% S9 exogenous metabolic activator (S9 mix). The lyophilized post-mitochondrial supernatant S9 mix (Aroclor 1254-induced, Sprague–Dawley male rat liver in 0.154 M KCl solution, Molecular Toxicology, Inc., Boone, NC, USA), commonly used for the activation of pro-mutagens to mutagenic metabolites, was stored at− 80 °C before use. The concentration tested for all the samples were 1, 5, 10, 50, 100 µL/plate of a stock solution 100 mg/mL.
A fully-grown culture of the appropriate tester strain (0.1 mL) was added to 2 mL Molten Top Agar (0.6% agar, 0.6% NaCl, 0.5 mM L-histidine/biotin solution) at 46 °C, together with 0.1 mL of each sample solution at different concentrations, and 0.5 mL S9 mix for assays with metabolic activation or 0.5 mL of phosphate buffer pH 7.4 to test without metabolic activation. The ingredients were thoroughly mixed and poured onto minimal glucose agar plates (1.5% agar in 2% Vogel–Bonner medium E with 5% glucose solution).
DMSO was used as a negative control (100 µl/plate). Positive controls were prepared as follows: 2-aminoanthracene (2 µg/plate) and 2-nitrofluorene (2 µg/plate) for TA98 with and without metabolic activator (S9 mix) respectively; 2-aminoanthracene (2 µg/plate) and sodium azide (2 µg/plate) for TA100, with and without metabolic activator (S9 mix) respectively. The plates were incubated at 37 °C for 72 h and then the his^+ revertants were checked and counted using a Colony Counter 560 Suntex (Antibioticos, Italy). A sample was considered mutagenic when the observed number of colonies was at least twofold over the spontaneous level of revertants. All determinations were made in triplicate. Relative standard deviations were computed using the statistical software […] 6.0 (StatSoft Italia srl).

[4] abbreviates: TA100, + S9, 1 µL/plate of a stock solution 100 mg/mL.
The mark [5] stands for this setting: TA100, + S9, 5 µL/plate of a stock solution 100 mg/mL.
[6] abbreviates: TA100, + S9, 10 µL/plate of a stock solution 100 mg/mL.
Setting [7] is: TA100, + S9, 50 µL/plate of a stock solution 100 mg/mL.
Setting [8] is: TA100, + S9, 100 µL/plate of a stock solution 100 mg/mL.
The mark [9] stands for this setting: TA100, − S9, 1 µL/plate of a stock solution 100 mg/mL.
Where [10] appears, read: TA100, − S9, 5 µL/plate of a stock solution 100 mg/mL.
Where [11] appears, read: TA100, − S9, 10 µL/plate of a stock solution 100 mg/mL.
Where [12] appears, read: TA100, − S9, 50 µL/plate of a stock solution 100 mg/mL.
Setting [13] is: TA100, − S9, 100 µL/plate of a stock solution 100 mg/mL.

Each structure is given as a SMILES string.

With `Cc1ccc(O)c2c1CCC1C3CC[C@](O)(C(=O)CO)[C@@]3(C)CC(=O)[C@@]21O` (stereo partly drawn) [SCA, 1,9β,17,21‐tetrahydoxy‐4‐methyl‐19‐nor‐9β‐pregna‐1,3,5(10)‐trien‐11,20‐dione], the “antioxidant capacity, PCL-ACL assay” value in series [1] stood at 1375 µmol/g. The “effect on TNFα-triggered IL-8 mRNA upregulation” value in series [2] is reported as “completely abolish”. In series [3], the “genotoxic activity (Ames test)” value is “For none of the samples genotoxic activity emerged”. The “average number of revertant colonies” value is given as 179.3 in series [3] (setting [4]); 181.7 in series [3] (setting [5]); 185.3 in series [3] (setting [6]); 205.7 in series [3] (setting [7]); 194.3 in series [3] (setting [8]); 163.0 in series [3] (setting [9]). The “average number of revertant colonies” value in series [3] (setting [10]) came out at 164.3; in series [3] (setting [11]), 158.0; in series [3] (setting [12]) it was 157.0; in series [3] (setting [13]), 166.7. In addition, the “t/c (revertant colonies in treated plates/untreated plates)” value in series [3] (setting [4]) is given as 1.0; in series [3] (setting [5]), 1.0; in series [3] (setting [6]) it was 1.0; in series [3] (setting [7]), 1.1; in series [3] (setting [8]), 1.1; in series [3] (setting [9]), 1.0. Further, the “t/c (revertant colonies in treated plates/untreated plates)” value in series [3] (setting [10]) was 1.0; in series [3] (setting [11]), 1.0; in series [3] (setting [12]), 0.9; in series [3] (setting [13]), 1.0.

Take `Cc1ccc(O)c2c1CCC1C3CC[C@](O)([C@H](O)CO)[C@@]3(C)CC(=O)[C@@]21O` (stereo partly drawn) [SCB, 1,9β,17,20β,21‐ pentahydoxy‐4‐methyl‐19‐nor‐9β‐pregna‐1,3,5(10)‐trien‐11‐one]: the “antioxidant capacity, PCL-ACL assay” value in series [1] amounted to 1265 µmol/g. In series [2], the “effect on TNFα-triggered IL-8 mRNA upregulation” value is “completely abolish”. For the same molecule, the “genotoxic activity (Ames test)” value in series [3] was “For none of the samples genotoxic activity emerged”. For the same molecule, the “average number of revertant colonies” value in series [3] (setting [4]) came out at 190; in series [3] (setting [5]), 194; in series [3] (setting [6]) it was 193; in series [3] (setting [7]) it was 189; in series [3] (setting [8]), 195; in series [3] (setting [9]) it was 157. Moreover, the “average number of revertant colonies” value in series [3] (setting [10]) is on record as 169; in series [3] (setting [11]), 164; in series [3] (setting [12]) it was 169; in series [3] (setting [13]), 180. Further, the “t/c (revertant colonies in treated plates/untreated plates)” value in series [3] (setting [4]) is 1.0; in series [3] (setting [5]), 1.0; in series [3] (setting [6]), 1.0; in series [3] (setting [7]), 1.0; in series [3] (setting [8]), 1.0; in series [3] (setting [9]), 0.9. Moreover, the “t/c (revertant colonies in treated plates/untreated plates)” value in series [3] (setting [10]) is 1.0; in series [3] (setting [11]), 1.0; in series [3] (setting [12]) it was 1.0; in series [3] (setting [13]) it was 1.1.
